Here are results for one compound from patent US9757360B2, “Pharmaceutical composition comprising a ryanodine receptor antagonist for facilitating wound healing” (SZEGEDI TUDOMÁNYEGYETEM, priority 2013, dated 2017).

The test system of assay [1] is blood flow of the wound area. As to the kind of experiment: Laser-Doppler flowmetry of the wound area. The class given is in vivo, SKH-1 hairless mice. The note with it: day 1 after wound creation; 200 μL dantrolene solution, measured 10 minutes later; 11 mm wound. Here is the method: (§1) The experiments were performed on male SKH-1 hairless mice of our own rearing (body weight: 36-44 g). Procedures and protocols were approved by the competent authorities (license number: V./145/2013.). Only healthy animals free of any type of injury were used, mice with any sign of disorders were discarded. Prior to the interventions the animals were anesthetized with a mixture of ketamine (Sigma) (90 mg/kg) and xylazine (Sigma) (25 mg/kg) administered intraperitoneally. A skin fold was formed in the dorsal region and was fixed with two symmetrical, fenestrated titanium plates (IROLA GmbH, Schonach, Germany) according to the description of Sorg et al. (Sorg et al., 2007).
(§2) In the midline of the dorsal region two holding stitches were placed in order to form a skin fold. This skin fold was sandwiched by two symmetrical, fenestrated titanium plates. The plates were fixed with sutures, bolts and nuts. On one side of the skin fold, a circular full-thickness wound was made by removing the tissue down to muscle layer of the other side (the diameter of the wound was 4 mm while those of used for Laser-Doppler flowmetry came to 11 mm). The wound was covered with a glass coverslip incorporated into the window of the titanium frame. The glass was removed for the duration of treatments and measurements only. […]

Assay [2] relates to microcirculation of the wound edges. Kind of assay: Intravital videomicroscopy (IVM) of the microcirculation of the wound edges. As to conditions: 100 μM topical once a day. Type of assay: in vivo, SKH-1 hairless mice. Here is the method:
as §1
In the midline of the dorsal region two holding stitches were placed in order to form a skin fold. This skin fold was sandwiched by two symmetrical, fenestrated titanium plates. The plates were fixed with sutures, bolts and nuts. On one side of the skin fold, a circular full-thickness wound was made by removing the tissue down to muscle layer of the other side (the diameter of the wound was 4 mm while those of used for Laser-Doppler flowmetry came to 11 mm). The wound was covered with a glass coverslip incorporated into the window of the titanium frame. The glass was removed for the duration of treatments and measurements only. In the control group (n=6), the wounds were treated with 100 μL of sterile saline once a day while in the dantrolene-treated group (n=6) 100 μL of a solution containing the sodium salt of dantrolene (100 μM) was applied to the wound once a day (the salt was dissolved in sterile saline). The observation period took 20 days (according to our previous results this is the time period needed for approximately 100% closure of wounds of 4 mm).
Intravital videomicroscopy (IVM). Microcirculation of the wound edges was monitored by means of IVM on days 4, 8 and 12. After anesthesia, 80 μL of a solution of fluorescein-isothyocyanate (FITC) labeled dextrane (2%) and also 80 μL of a solution of rhodamine-6G was administered retrobulbar. These contrast materials allow us to visualize microcirculation and leukocyte-endothelial interactions at the appropriate wavelengths. Video records of the microcirculation were evaluated off-line with Pictron IVM software. Red blood cell velocity (RBCV) was determined in the capillaries, the diameter of each vessel in the evaluated fields-of-view was measured (only diameters above 6 μm were considered) and sticking leukocytes were counted in the postcapillary venules (this parameter is relative to the area of the vessel wall and is given as cell/μm2).
Control- and dantrolene-treated groups were compared with the Mann-Whitney test and p<0.05 was considered statistically significant.

Assay [3] deals with full-thickness dermal wound. As to the kind of experiment: Histology of excised wounds (epithelialization zone, dermal regeneration). Type of assay: in vivo, SKH-1 hairless mice. As to conditions: day 4; 100 μM topical once a day. The protocol:
as §1
In the midline of the dorsal region two holding stitches were placed in order to form a skin fold. This skin fold was sandwiched by two symmetrical, fenestrated titanium plates. The plates were fixed with sutures, bolts and nuts. […]
Histology. […] Zone of epithelialization was defined as the extension of epithelial regeneration measured from the wound edges and given as percentage relative to the initial diameter of the wound. Dermal regeneration was determined, too (thickness of dermal connective tissue was measured within the wound area and was given as percentage relative to that of determined in the intact skin). […]

Assay [4] concerns epidermal barrier function. As to conditions: cited from earlier work.
Assay [5] has as its system full-thickness dermal wound. As to the kind of experiment: Macroscopic wound closure of full-thickness dermal wounds in a dorsal skin fold chamber (photo documentation). Type of assay: in vivo, SKH-1 hairless mice. As to conditions: for Rate of wound closure vs control group: 100 μM topical once a day.
Text: In our experiments, we have studied the effects of dantrolene on different parameters of wound healing. SKH-1 hairless male mice were used in the experiments. Full-thickness wound was made in a dorsal skin fold. The effects of dantrolene or saline (control group) on wound healing were monitored by means of photo documentation, intravital videomicroscopy (IVM) and laser Doppler flowmetry. The experimental setup was in accordance with the model described by Sorg et al. (Sorg et al., 2007). Wounds were treated daily either with dantrolene or with saline.
as §1, §2
Macroscopic wound closure. […] The images were evaluated with a software developed by our working group (DermAssess©). […]

Consider `O=C1CN(/N=C/c2ccc(-c3ccc([N+](=O)[O-])cc3)o2)C(O)=N1` [dantrolene], for which, in assay [1], the “Blood flow in the wound area after vs before dantrolene treatment” value was “significant elevation”. The “Number of sticking leukocytes in the postcapillary venules, difference vs control” value in assay [2] (day 12) is on record as “not statistically significant”. For the same compound, the “Vessel diameters at the wound edges vs control group” value in assay [2] (days 4, 8 and 12 (corresponding times)) is “considerably higher”. In assay [2] (days 4, 8 and 12), the “Red blood cell velocity (RBCV) in the capillaries vs control group” value is recorded as “higher”. The “Number of sticking leukocytes in the postcapillary venules vs control” value in assay [2] (days 4 and 8) is listed as “significantly decreased”. Moreover, in assay [3], the “Dermal regeneration vs control group” value is “more expressed” and the “Extension of epithelialization zone vs control” value is listed as “more extended”. For the same compound, the Barrier regeneration result in assay [4] (local application, after removal of the uppermost layer of the epidermis) is “accelerates”. Moreover, the Transepidermal water loss entry in assay [4] (mice with barrier function impaired after tape stripping of the upper epidermis) is “ameliorate”. Besides, in assay [5] (by day 20, 100 μL of 100 μM dantrolene sodium salt solution on the wound once a day, 4 mm wound), the “Macroscopic wound closure (decrease in wound area relative to baseline)” value was about 100%. The “Rate of wound closure vs control group” value in assay [5] (day 16) is recorded as “no difference”. The “Rate of wound closure vs control group” value in assay [5] (days 4, 8 and 12, p<0.05 vs saline control) is on record as “significantly higher”.
